According to PubChem BioAssay AID248 (DTP/NCI, 2004):
Several values for one entry are separate records, joined by “and”; a condition that tells them apart may be missing. Equal values may be shown once. Inconclusive results and toxic doses are left out. No stated cut-off is given here; in the data, active means T/C of 150% or more; inactive means T/C below 125%.

System: L1210 leukemia ip in BDF1 mice, survival T/C
Assay: NCI In Vivo Anticancer Drug Screen. Data for tumor model L1210 Leukemia (intraperitoneal) in B6D2F1 (BDF1) mice
Conditions: endpoint: mean survival time, higher = longer survival
Summary of the method: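 Antitumor effect is assessed in tumor-bearing animals. Survival in the compound arm is compared with a vehicle-dosed control arm and expressed as their quotient.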

[1] = dose: 100.0 mg/kg/injection, schedule: Q01DX009 (ip), vehicle: saline with Tween-80
[2] = dose: 100.0 mg/kg/injection, schedule: Q01DX009 (ip), vehicle: saline
[3] = dose: 200.0 mg/kg/injection, schedule: Q01DX009 (ip), vehicle: saline
[4] = dose: 200.0 mg/kg/injection, schedule: Q01DX009 (ip), vehicle: saline with Tween-80
[5] = dose: 100.0 mg/kg/injection, schedule: Q04DX003 (ip), vehicle: Klucel (hydroxypropylcellulose) (HPC)
[6] = dose: 100.0 mg/kg/injection, schedule: Q01DX001 (ip), vehicle: saline
[7] = dose: 200.0 mg/kg/injection, schedule: Q01DX001 (ip), vehicle: saline
[8] = dose: 400.0 mg/kg/injection, schedule: Q01DX001 (ip), vehicle: saline

Measured: T/C

Fc1nc2nc(C(F)(F)F)[nH]c2nc1F
inactive: dose: 25.0 mg/kg/injection, schedule: Q01DX009 (ip), vehicle: saline with Tween-80 93 % of control | dose: 50.0 mg/kg/injection, schedule: Q01DX009 (ip), vehicle: saline with Tween-80 90 % of control | [1] 95 % of control | [2] 103 % of control | dose: 100.0 mg/kg/injection, schedule: Q04DX003 (ip), vehicle: saline with Tween-80 95 % of control | dose: 200.0 mg/kg/injection, schedule: Q04DX003 (ip), vehicle: saline with Tween-80 105 % of control | dose: 400.0 mg/kg/injection, schedule: Q04DX003 (ip), vehicle: saline with Tween-80 90 % of control

CCCCCCCCCCCCCCCC(=O)N(CC)CC
inactive: dose: 100.0 mg/kg/injection, schedule: Q01DX001 (ip), vehicle: carboxymethylcellulose (CMC) 104 % of control | dose: 100.0 mg/kg/injection, schedule: Q01DX009 (ip), vehicle: carboxymethylcellulose (CMC) 98 % of control and 104 % of control | dose: 100.0 mg/kg/injection, schedule: Q04DX003 (ip), vehicle: carboxymethylcellulose (CMC) 96 % of control | dose: 200.0 mg/kg/injection, schedule: Q01DX001 (ip), vehicle: carboxymethylcellulose (CMC) 96 % of control | dose: 200.0 mg/kg/injection, schedule: Q01DX009 (ip), vehicle: carboxymethylcellulose (CMC) 96 % of control and 102 % of control | dose: 200.0 mg/kg/injection, schedule: Q04DX003 (ip), vehicle: carboxymethylcellulose (CMC) 92 % of control | dose: 400.0 mg/kg/injection, schedule: Q01DX001 (ip), vehicle: carboxymethylcellulose (CMC) 95 % of control | dose: 400.0 mg/kg/injection, schedule: Q01DX009 (ip), vehicle: carboxymethylcellulose (CMC) 96 % of control and 89 % of control | dose: 400.0 mg/kg/injection, schedule: Q04DX003 (ip), vehicle: carboxymethylcellulose (CMC) 94 % of control

N#Cc1ccc(OC(=O)c2ccc(N=C(N)N)cc2)cc1
inactive: [2] 94 % of control | dose: 100.0 mg/kg/injection, schedule: Q04DX003 (ip), vehicle: saline 96 % of control | [3] 91 % of control | dose: 200.0 mg/kg/injection, schedule: Q04DX003 (ip), vehicle: saline 93 % of control | dose: 400.0 mg/kg/injection, schedule: Q04DX003 (ip), vehicle: saline 88 % of control

O=C(Nc1ccc(CCC2=NCCN2)cc1)c1ccc(C(=O)Nc2ccc(CCC3=NCCN3)cc2)cc1
inactive: dose: 30.0 mg/kg/injection, schedule: Q01DX Z (oral), vehicle: saline 101 % of control | dose: 60.0 mg/kg/injection, schedule: Q01DX Z (oral), vehicle: saline 103 % of control | dose: 120.0 mg/kg/injection, schedule: Q01DX Z (oral), vehicle: saline 106 % of control | dose: 240.0 mg/kg/injection, schedule: Q01DX Z (oral), vehicle: saline 97 % of control

NC(=O)c1ccc[n+](Cc2ccccc2)c1
inactive: dose: 37.5 mg/kg/injection, schedule: Q04DX003 (ip), vehicle: saline 97 % of control | dose: 75.0 mg/kg/injection, schedule: Q04DX003 (ip), vehicle: saline 94 % of control | [2] 100 % of control | dose: 150.0 mg/kg/injection, schedule: Q04DX003 (ip), vehicle: saline 95 % of control | [3] 107 % of control

C/C=C/C[n+]1cccc2ccccc21
inactive: dose: 6.25 mg/kg/injection, schedule: Q01DX009 (ip), vehicle: saline 92 % of control | dose: 6.25 mg/kg/injection, schedule: Q04DX003 (ip), vehicle: saline 98 % of control | dose: 12.5 mg/kg/injection, schedule: Q01DX009 (ip), vehicle: saline 95 % of control | dose: 12.5 mg/kg/injection, schedule: Q04DX003 (ip), vehicle: saline 101 % of control | dose: 25.0 mg/kg/injection, schedule: Q01DX009 (ip), vehicle: saline 100 % of control | dose: 25.0 mg/kg/injection, schedule: Q04DX003 (ip), vehicle: saline 101 % of control

Ic1cccc(Oc2ccccc2)c1
inactive: [1] 114 % of control | [4] 91 % of control

CC/C(=C\c1ccc(Cl)cc1)[N+](=O)[O-]
inactive: dose: 12.5 mg/kg/injection, schedule: Q01DX009 (ip), vehicle: Klucel (hydroxypropylcellulose) (HPC) 98 % of control | dose: 25.0 mg/kg/injection, schedule: Q01DX009 (ip), vehicle: Klucel (hydroxypropylcellulose) (HPC) 100 % of control | dose: 25.0 mg/kg/injection, schedule: Q04DX003 (ip), vehicle: Klucel (hydroxypropylcellulose) (HPC) 100 % of control | dose: 50.0 mg/kg/injection, schedule: Q01DX009 (ip), vehicle: Klucel (hydroxypropylcellulose) (HPC) 88 % of control | dose: 50.0 mg/kg/injection, schedule: Q04DX003 (ip), vehicle: Klucel (hydroxypropylcellulose) (HPC) 105 % of control | [5] 101 % of control and 111 % of control

COc1cccc(C2NC(=O)CCC2N)c1OC (configuration not stated)
inactive: dose: 100.0 mg/kg/injection, schedule: Q04DX002 (ip), vehicle: saline with Tween-80 105 % of control | dose: 200.0 mg/kg/injection, schedule: Q04DX002 (ip), vehicle: saline with Tween-80 102 % of control | dose: 400.0 mg/kg/injection, schedule: Q04DX002 (ip), vehicle: saline with Tween-80 97 % of control

CC(=O)c1ccc2nc(C)cc(Cl)c2c1
inactive: [6] 96 % of control | [7] 91 % of control | [8] 96 % of control

CC(C)(C)C(Br)C(=O)Nc1ccccc1 (configuration not stated)
inactive: [6] 104 % of control | [7] 102 % of control | [8] 102 % of control

N#CCC(=O)N1Cc2cc3ccccc3nc2C1
inactive: dose: 100.0 mg/kg/injection, schedule: Q04DX003 (ip), vehicle: saline sonified 115 % of control | dose: 200.0 mg/kg/injection, schedule: Q04DX003 (ip), vehicle: saline sonified 95 % of control | dose: 400.0 mg/kg/injection, schedule: Q04DX003 (ip), vehicle: saline sonified 101 % of control

CNC(=O)Oc1cccc(NC(=O)OC2CCCCC2)c1
inactive: [1] 89 % of control | [4] 97 % of control | dose: 400.0 mg/kg/injection, schedule: Q01DX009 (ip), vehicle: saline with Tween-80 89 % of control

C1CCC2[N-]CC3CCCCC3[N-]CC3CCCCC3[N-]CC3CCCCC3[N-]CC2C1.[Cl][Fe]([Cl])([Cl])[Cl].[Fe+6] (configuration not stated)
inactive: dose: 12.5 mg/kg/injection, schedule: Q04DX002 (ip), vehicle: Klucel (hydroxypropylcellulose) (HPC) 102 % of control | dose: 25.0 mg/kg/injection, schedule: Q04DX002 (ip), vehicle: Klucel (hydroxypropylcellulose) (HPC) 102 % of control | dose: 50.0 mg/kg/injection, schedule: Q04DX002 (ip), vehicle: Klucel (hydroxypropylcellulose) (HPC) 94 % of control

COc1cc(/C=N/NC(=O)c2ccccc2)ccc1O
inactive: [5] 100 % of control | dose: 200.0 mg/kg/injection, schedule: Q04DX003 (ip), vehicle: Klucel (hydroxypropylcellulose) (HPC) 95 % of control | dose: 400.0 mg/kg/injection, schedule: Q04DX003 (ip), vehicle: Klucel (hydroxypropylcellulose) (HPC) 94 % of control

O=C1C=CC(=O)N1c1ccc(Br)cc1 (tested in a mixture with another compound)
inactive: dose: 100.0 mg/kg/injection, schedule: Q04DX003 (ip), vehicle: acetone 96 % of control | dose: 200.0 mg/kg/injection, schedule: Q04DX003 (ip), vehicle: acetone 89 % of control | dose: 400.0 mg/kg/injection, schedule: Q04DX003 (ip), vehicle: acetone 91 % of control

O=C(NC(=S)Nc1ccccc1)c1ccc([N+](=O)[O-])cc1
inactive: dose: 75.0 mg/kg/injection, schedule: Q01DX001 (ip), vehicle: carboxymethylcellulose (CMC) 98 % of control | dose: 150.0 mg/kg/injection, schedule: Q01DX001 (ip), vehicle: carboxymethylcellulose (CMC) 90 % of control | dose: 300.0 mg/kg/injection, schedule: Q01DX001 (ip), vehicle: carboxymethylcellulose (CMC) 101 % of control

O=S(=O)(/C=C/c1ccc(Cl)cc1)c1ccccc1
inactive: [6] 102 % of control | [2] 91 % of control | [7] 104 % of control | [3] 96 % of control | [8] 102 % of control | dose: 400.0 mg/kg/injection, schedule: Q01DX009 (ip), vehicle: saline 94 % of control

Cc1cn(C2CCCCC2)c(=O)[nH]c1=O
inactive: dose: 25.0 mg/kg/injection, schedule: Q01DX Z (ip), vehicle: methylcellulose (MC) 89 % of control | dose: 50.0 mg/kg/injection, schedule: Q01DX Z (ip), vehicle: methylcellulose (MC) 92 % of control

CNC(=O)Oc1cc2ccccc2cc1C(=O)Nc1ccccc1
inactive: dose: 100.0 mg/kg/injection, schedule: Q04DX002 (ip), vehicle: Klucel (hydroxypropylcellulose) (HPC) 97 % of control | dose: 200.0 mg/kg/injection, schedule: Q04DX002 (ip), vehicle: Klucel (hydroxypropylcellulose) (HPC) 100 % of control | dose: 400.0 mg/kg/injection, schedule: Q04DX002 (ip), vehicle: Klucel (hydroxypropylcellulose) (HPC) 113 % of control
